Measured values as given in patent publication US20190380985A1, “Composition Containing N-acetyldiaminobutyric Acid” (bitop AG, priority 2016, published 2019).

Legend:
SIRC cell line = test: Matsuo moisturizing assay (calcein AM viability after air-drying); format: cell-based, rabbit; conditions: 25 mM; 15 min treatment, 45 min air-drying; FIG. 1
Procedure: The skin/mucosal moisturizing effect of N-acetyldiaminobutyric acid was investigated using a Matsuo moisturizing assay (Matsuo, Br J. Opthalmol. 85: 610-612). An SIRC cell line isolated from rabbit eyes was used for this purpose. For the experiments, 30,000 cells were placed in each well of a 96 well microtiter plate. After approx. 24 h a complete monolayer had formed in each case. The supernatant was then removed and 100 μl of the test substances diluted in PBS (phosphate buffered salt solution) were applied to the cells for 15 min. Then, the supernatant was removed again. At this stage, the cells were not washed with PBS. Under sterile conditions the cells were air-dried over a period of 45 min. Following this, the cells were washed three times with PBS. To determine cell viability calcein AM staining (calcein-acetoxymethyl ester) was used. Calcein is a fluorescent dye. After the transport of calcein AM into the living cell, the ester groups were cleaved by esterases of the cell resulting in the formation of calcein causing a strongly green fluorescent complex to be formed with calcium ions present in the cell. […] In turn, a high cell viability attests to good wetting properties of the test substances.
The result is shown in FIG. 1 in comparison to the effect of ectoine and hyaluronic acid. […]

HaCaT cells [1] = test: ATP assay on aged keratinocytes (cell metabolism); format: cell-based, human; conditions: 5 h incubation in PBS, compared to PBS only (0%), FIG. 7
Text: HaCaT cells (a keratinocyte cell line) were placed on a 96-well microtiter plate and a cell culture was allowed to form for a period of at least one week until cell growth was stopped by contact inhibition. Following this, the cells were cultivated for another week to simulate the ageing process. The cell culture medium was changed over to PBS with the addition of NADA and reference substances such as glucosylglycerol, ectoine (28Extremoin) and Myramaze®, a commercially available anti-aging product. The cells were incubated for a period of 5 hours. Finally, an ATP assay was prepared, whereby a high ATP synthesis indicates a high degree of metabolism and thus attests to cell vitality. The results can be seen from FIG. 7.

LLC-PK1 cell line = test: Membrane stabilization, calcein AM assay, LLC-PK1; format: cell-based; conditions: LLC-PK1 cells; FIG. 6
Phenion skin model = test: UV protection test using LDH assay on full thickness skin model; format: cell-based; conditions: 4 h incubation, compared with PBS, FIG. 3
Procedure: In order to further evaluate the UV, protection effect of NADA, a full thickness skin model of Henkel (Phenion skin, model) was used. This is based on a bovine collagen structure, which is morphologically equivalent to human skin and thus allows examinations to be easily carried out. The Phenion skin model was incubated with the test substances for 4 hours. These were applied directly to the top surface. Subsequently, the Phenion skin model was exposed to UV-B radiation for 2 hours. […] The skin model was then incubated for another 24 hours and the LDH (lactate dehydrogenase) value was determined, which is a measure of the degree of damage caused to the cells.

TR146 cell line = test: Membrane stabilization, calcein AM assay, TR146; format: cell-based, human; conditions: different concentrations, compared to PBS only; FIG. 5
Procedure: This is a buccal human cell line of oral mucosa cells. The cells were placed in a microtiter plate having 96 wells. As soon as confluence was reached, the cells were washed with PBS and provided with different concentrations of N-acetyldiaminobutyric acid. The negative control contained only PBS, the positive control cDPG (cyclic 2,3-diphosphoglycerate). Following incubation, the cells were again washed with PBS and incubated with 5 μM of calcein AM for a period of 45 min. The hydrolysis of calcein AM, which itself is non-fluorescent, by intracellular esterases produces calcein, a hydrophilic, highly fluorescent compound that is retained in the cytoplasm of the cells. Accordingly, high fluorescence is indicative of high cell viability.

claudin-1 = test: Claudin-1 specific ELISA after heat stress (tight junctions); format: cell-based, human; conditions: 6 h pretreatment 10-175 mM, 44° C. 30 min, FIG. 8
Text: The examination focused on the upregulation of claudins, membrane proteins as constituents of tights junctions, which close off the gaps between the cells of the epithelium so that a barrier is formed. This barrier controls the penetration of molecules via the epithelium. Specifically, the pore occluding claudin-1 was examined. An increased expression of claudin-1 leads to higher imperviousness of the epithelial membrane and increased transepithelial electrical resistance (TEER). The permeability is thus reduced.
The epithelial cell line (HaCaT) used for the experiment was cultivated in wells on a microtiter plate until a closed cell monolayer had developed. Subsequently, the cells were pretreated with NADA for 6 hours in the cell culture medium (10, 25, 50, 75, 100 and 175 mM). The cells were then suddenly exposed to a temperature of 44° C. for a period of 30 min. before being kept at 37° C. for another 24 and 48 hours respectively. The cells were harvested and the lysate was analyzed using a claudin-1 specific ELISA (enzyme-linked immunosorbent assay). The results can be seen from FIG. 8.

HaCaT cells [2] = test: IR protection test using LDH assay; format: cell-based, human; conditions: 5 h preincubation, 44° C. for 30 min, 60 h at 37° C., FIG. 4; for liberation of LDH (protection against heat/IR): compared to untreated cells
Text: Infrared (IR) radiation brings about an increase in skin temperature, which is associated with an increase in the number of free radicals and increased expression of heat shock inducing metalloproteases (MMP). A permanent exposure to IR radiation may result in an increase in cell death rate through apoptosis. In order to determine the potential of NADA and, for comparative purposes, ectoine on eukaryotic cells regarding the protection against heat and IR radiation, HaCaT cells (human keratinocyte cell line) were applied to 96 wells of a microtiter plate. After a uniform cell layer had formed, the test substances were applied to the medium and the cells were incubated for 5 hours at a temperature of 37° C. Following preincubation, the cells were exposed to a temperature of 44° C. for 30 min. The cells were then incubated at 37° C. for a further 60 hours.

HaCaT cells [3] = test: UV protection test via TEER assay; format: cell-based, human; conditions: 100 mM, overnight preincubation, 45 min UV-B, 24 h later; FIG. 2
Text: A characteristic feature of epithelial as well as endothelial cell layers is the formation of intercellular connections leading to a dense cell barrier separating the basolateral (abluminal) side from the apical (luminal) side. The cell layers form selectively permeable interfaces between different compartments, in this way controlling the diffusion in intercellular space as well as intracellular transport processes. This is ensured by tight junctions (paracellular barriers in the intercellular space). The integrity of these barriers is determined by the so-called TEER method (transepithelial/transendothelial electrical resistance). A defined DC voltage is applied to two electrodes on both sides of the cell layer. The flowing current is measured, which yields the respective resistance results according to Ohm's law.
HaCaT cells were used, a human keratinocyte cell line. These were applied to PET membranes (“ThinCerts®”). It was waited until the cells had formed a complete and intact monolayer. […]
In order to accomplish a closer investigation of the protective effect of membranes stabilized by N-acetyldiaminobutyric acid against UV radiation, keratinocytes were incubated overnight in a cell culture medium with PBS, NADA (50 mM and 100 mM) and other compounds. […] The cells were incubated for another 24 hours and the TEER values were determined. […]

Row | Compound | viability of the cells and thus the humidification after drying of the cells (SIRC cell line) | ATP activity (cell metabolism) (HaCaT cells [1]) | calcein fluorescence (membrane stabilizing effect) (LLC-PK1 cell line) | LDH value after UV exposure (UV protection) (Phenion skin model; 2 h UV-B, 24 h later) | LDH value before UV exposure (Phenion skin model; before UV-B) | calcein fluorescence (stabilization of epithelial cells) (TR146 cell line) | expression of claudin-1 (claudin-1; then 24 hours at 37° C.) | expression of claudin-1 (claudin-1; then 48 hours at 37° C.) | protection against IR radiation relative to ectoine (HaCaT cells [2]) | liberation of LDH (protection against heat/IR) (HaCaT cells [2]) | change of the TEER value after UV-B radiation (HaCaT cells [3])
1 | CC(=O)NCCC(N)C(=O)O (stereo not drawn) [NADA, N-acetyldiaminobutyric acid] | comparable results to ectoine | reactivation of aged keratinocytes | membrane stabilizing effect | shows UV protection properties | approximately the same for PBS and NADA | significant, concentration-dependent stabilization of the epithelial cells | distinct increase in the expression of claudin-1 | distinct increase in the expression of claudin-1 | more effective than ectoine | offer protection against intense IR radiation | significant protection of the cell membrane
2 | CC1=NC(C(=O)O)CCN1 (stereo not drawn) [ectoine, 2-methyl-1,4,5,6-tetrahydropyrimidine-4-carboxylic acid, reference compound] |  |  |  |  |  |  |  |  |  | offer protection against intense IR radiation | 
